Measured values taken from ChEMBL document CHEMBL5346968, “Exploring Structural Determinants of Bias among D4 Subtype-Selective Dopamine Receptor Agonists” (J Med Chem, 2023).

Legend:
D(2) dopamine receptor [1] = target: T1, D(2) dopamine receptor (Homo sapiens, UniProt P14416); assay: Displacement of [3H]-N-methylspiperone from human dopmaine D2S receptor expressed in CHO cell membrane assessed as inhibition constant by competition binding assay; assay type: cell membranes
D(3) dopamine receptor = D(3) dopamine receptor (Homo sapiens, UniProt P35462); assay: Displacement of [3H]-N-methylspiperone from human dopmaine D3 receptor expressed in HEK293T cells assessed as inhibition constant by competition binding assay; assay type: cell-based
Sequence of D(3) dopamine receptor (P35462 whole entry): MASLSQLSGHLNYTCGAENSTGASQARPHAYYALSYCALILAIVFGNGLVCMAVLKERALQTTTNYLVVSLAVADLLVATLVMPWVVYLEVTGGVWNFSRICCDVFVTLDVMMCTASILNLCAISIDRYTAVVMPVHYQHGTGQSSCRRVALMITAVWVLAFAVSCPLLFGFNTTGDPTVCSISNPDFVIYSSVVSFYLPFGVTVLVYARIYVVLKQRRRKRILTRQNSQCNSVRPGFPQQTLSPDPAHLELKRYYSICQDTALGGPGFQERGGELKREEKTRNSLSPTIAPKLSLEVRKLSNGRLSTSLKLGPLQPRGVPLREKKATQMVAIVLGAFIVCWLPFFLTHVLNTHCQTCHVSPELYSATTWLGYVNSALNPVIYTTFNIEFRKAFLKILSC

D(2) dopamine receptor [2] = target: T1, D(2) dopamine receptor; assay: Displacement of [3H]-N-methylspiperone from human dopmaine D2L receptor expressed in CHO cell membrane assessed as inhibition constant by competition binding assay; assay type: cell membranes
D(4) dopamine receptor [3] = target: T2, D(4) dopamine receptor (Homo sapiens, UniProt P21917); assay: Displacement of [3H]-N-methylspiperone from human dopmaine D4.4 receptor expressed in HEK293T cells assessed as inhibition constant by competition binding assay; assay type: cell-based
T2 sequence (P21917 whole entry): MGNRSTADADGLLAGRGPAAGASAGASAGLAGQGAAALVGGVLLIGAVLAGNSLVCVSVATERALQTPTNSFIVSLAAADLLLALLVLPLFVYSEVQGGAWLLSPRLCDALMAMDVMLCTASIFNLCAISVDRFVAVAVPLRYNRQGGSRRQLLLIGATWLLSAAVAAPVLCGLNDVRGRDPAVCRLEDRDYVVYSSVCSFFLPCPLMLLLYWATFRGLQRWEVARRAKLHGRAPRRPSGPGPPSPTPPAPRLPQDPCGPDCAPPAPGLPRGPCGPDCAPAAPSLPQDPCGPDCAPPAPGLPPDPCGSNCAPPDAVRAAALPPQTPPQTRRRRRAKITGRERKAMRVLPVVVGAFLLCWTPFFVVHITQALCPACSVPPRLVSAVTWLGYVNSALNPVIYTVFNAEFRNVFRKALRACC

[4] = target: 5-hydroxytryptamine receptor 2A (Homo sapiens, UniProt P28223); assay: Displacement of [3H]ketanserin from 5-HT2A receptor (unknown origin) expressed in HEK293T cells assessed as inhibition constant by competition binding assay; assay type: cell-based
Sequence of 5-hydroxytryptamine receptor 2A (P28223 whole entry): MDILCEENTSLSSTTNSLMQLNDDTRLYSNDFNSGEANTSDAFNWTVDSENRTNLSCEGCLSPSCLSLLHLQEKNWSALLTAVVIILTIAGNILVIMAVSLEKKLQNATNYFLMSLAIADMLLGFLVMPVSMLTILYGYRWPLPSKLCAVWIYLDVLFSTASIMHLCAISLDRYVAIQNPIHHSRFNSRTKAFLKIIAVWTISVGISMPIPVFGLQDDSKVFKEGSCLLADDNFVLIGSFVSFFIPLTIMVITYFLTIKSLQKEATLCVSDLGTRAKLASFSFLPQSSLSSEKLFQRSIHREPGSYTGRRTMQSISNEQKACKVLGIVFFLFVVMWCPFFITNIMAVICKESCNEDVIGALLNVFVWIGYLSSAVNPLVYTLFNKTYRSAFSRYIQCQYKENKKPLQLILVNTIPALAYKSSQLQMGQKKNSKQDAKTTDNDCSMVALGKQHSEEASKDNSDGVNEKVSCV

[5] = target: T3, Alpha-2A adrenergic receptor (Homo sapiens, UniProt P08913); assay: Displacement of [3H]RX821002 from adrenergic alpha 2A receptor (unknown origin) expressed in HEK293T cells assessed as inhibition constant by competition binding assay; assay type: cell-based
T3 sequence (P08913 whole entry): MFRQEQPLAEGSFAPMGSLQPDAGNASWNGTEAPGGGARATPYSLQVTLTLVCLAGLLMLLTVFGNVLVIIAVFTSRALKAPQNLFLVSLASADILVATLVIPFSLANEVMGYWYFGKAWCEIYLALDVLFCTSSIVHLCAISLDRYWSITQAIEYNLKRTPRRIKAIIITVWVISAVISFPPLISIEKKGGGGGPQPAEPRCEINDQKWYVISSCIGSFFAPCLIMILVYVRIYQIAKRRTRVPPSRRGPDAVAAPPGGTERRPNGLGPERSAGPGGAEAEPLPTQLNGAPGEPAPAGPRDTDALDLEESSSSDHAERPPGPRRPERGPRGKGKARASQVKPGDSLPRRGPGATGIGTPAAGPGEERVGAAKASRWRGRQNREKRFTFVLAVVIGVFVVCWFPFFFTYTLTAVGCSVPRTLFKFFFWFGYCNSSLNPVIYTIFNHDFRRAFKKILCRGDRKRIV

D(1A) dopamine receptor = D(1A) dopamine receptor (Homo sapiens, UniProt P21728); assay: Displacement of [3H]SCH23390 from human dopamine D1 receptor expressed in HEK293T cells assessed as inhibition constant by competition binding assay; assay type: cell-based
Sequence of D(1A) dopamine receptor (P21728 whole entry): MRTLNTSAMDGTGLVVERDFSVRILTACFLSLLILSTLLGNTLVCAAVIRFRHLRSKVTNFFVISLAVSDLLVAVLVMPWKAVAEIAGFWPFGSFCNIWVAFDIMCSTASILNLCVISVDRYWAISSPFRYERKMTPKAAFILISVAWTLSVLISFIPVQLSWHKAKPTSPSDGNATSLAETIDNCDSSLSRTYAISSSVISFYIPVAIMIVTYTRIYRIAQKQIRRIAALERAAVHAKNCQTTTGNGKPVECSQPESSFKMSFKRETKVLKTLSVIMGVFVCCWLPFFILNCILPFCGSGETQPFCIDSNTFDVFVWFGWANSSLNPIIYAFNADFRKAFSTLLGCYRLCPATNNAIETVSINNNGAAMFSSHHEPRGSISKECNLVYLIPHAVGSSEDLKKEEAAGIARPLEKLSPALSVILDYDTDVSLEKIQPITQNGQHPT

[6] = target: T4, Alpha-1A adrenergic receptor (Homo sapiens, UniProt P35348); assay: Displacement of [3H]prazosin from adrenergic alpha 1A receptor (unknown origin) expressed in HEK293T cells assessed as inhibition constant by competition binding assay; assay type: cell-based
T4 sequence (P35348 whole entry): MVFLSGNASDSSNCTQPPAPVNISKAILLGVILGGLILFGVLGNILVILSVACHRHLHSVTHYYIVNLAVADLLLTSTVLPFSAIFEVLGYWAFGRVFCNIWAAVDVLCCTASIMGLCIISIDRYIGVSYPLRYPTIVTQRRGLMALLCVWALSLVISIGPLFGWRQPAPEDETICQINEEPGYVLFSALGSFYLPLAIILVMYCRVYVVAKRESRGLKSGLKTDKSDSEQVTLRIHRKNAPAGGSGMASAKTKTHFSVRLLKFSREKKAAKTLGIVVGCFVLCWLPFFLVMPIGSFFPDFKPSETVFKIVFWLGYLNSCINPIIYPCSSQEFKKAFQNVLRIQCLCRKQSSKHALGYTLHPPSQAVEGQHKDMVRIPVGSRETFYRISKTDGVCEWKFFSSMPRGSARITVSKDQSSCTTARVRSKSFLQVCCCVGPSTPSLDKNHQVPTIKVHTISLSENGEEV

D(1B) dopamine receptor = D(1B) dopamine receptor (Homo sapiens, UniProt P21918); assay: Displacement of [3H]SCH23390 from human dopamine D5 receptor expressed in HEK293T cells assessed as inhibition constant by competition binding assay; assay type: cell-based
Sequence of D(1B) dopamine receptor (P21918 whole entry): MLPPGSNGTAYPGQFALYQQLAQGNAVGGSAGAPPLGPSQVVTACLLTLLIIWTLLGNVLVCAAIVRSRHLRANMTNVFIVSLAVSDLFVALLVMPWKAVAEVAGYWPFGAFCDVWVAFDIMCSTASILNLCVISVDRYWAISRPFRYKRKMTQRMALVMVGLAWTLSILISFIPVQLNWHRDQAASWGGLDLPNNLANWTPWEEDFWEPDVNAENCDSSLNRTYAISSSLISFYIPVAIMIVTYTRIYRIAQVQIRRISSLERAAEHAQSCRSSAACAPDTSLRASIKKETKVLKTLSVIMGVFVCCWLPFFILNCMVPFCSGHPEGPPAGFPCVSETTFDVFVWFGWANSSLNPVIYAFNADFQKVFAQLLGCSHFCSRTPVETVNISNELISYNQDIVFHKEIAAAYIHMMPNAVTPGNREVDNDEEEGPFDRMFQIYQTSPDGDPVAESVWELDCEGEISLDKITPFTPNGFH

[7] = target: T5, 5-hydroxytryptamine receptor 1A (Homo sapiens, UniProt P08908); assay: Displacement of [3H][…] from 5-HT1A receptor (unknown origin) expressed in HEK293T cells assessed as inhibition constant by competition binding assay; assay type: cell-based
T5 sequence (P08908 whole entry): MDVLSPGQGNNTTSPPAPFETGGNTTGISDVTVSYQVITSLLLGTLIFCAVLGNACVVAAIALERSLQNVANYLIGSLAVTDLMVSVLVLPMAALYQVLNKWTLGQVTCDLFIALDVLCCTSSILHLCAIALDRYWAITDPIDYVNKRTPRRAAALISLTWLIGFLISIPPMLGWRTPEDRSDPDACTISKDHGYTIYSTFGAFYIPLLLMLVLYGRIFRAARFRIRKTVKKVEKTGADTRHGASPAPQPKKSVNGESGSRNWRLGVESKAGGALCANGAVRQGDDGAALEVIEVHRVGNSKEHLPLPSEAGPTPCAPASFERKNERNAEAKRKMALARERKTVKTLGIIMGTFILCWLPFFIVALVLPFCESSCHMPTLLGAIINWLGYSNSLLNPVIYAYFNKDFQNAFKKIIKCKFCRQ

D(4) dopamine receptor [8] = target: T2, D(4) dopamine receptor; assay: Agonist activity at human dopamine D4 receptor transfected in HEK293T cells co-transfected with Galpha-qi assessed as activation of GPCR-mediated receptor signaling incubated for 90 mins by IP-one HTRF assay; assay type: functional, cell-based
D(4) dopamine receptor [9] = target: T2, D(4) dopamine receptor; assay: Agonist activity at PKA-tagged human dopamine D4 receptor transfected in HEK293T cells expressing (EA)-beta-arrestin assessed as beta-arrestin recruitment incubated for 3 hrs by chemiluminescence based PathHunter assay; assay type: functional, cell-based
D(4) dopamine receptor [10] = target: T2, D(4) dopamine receptor; assay: Agonist activity at PKA-tagged human dopamine D4 receptor transfected in HEK293T cells expressing (EA)-beta-arrestin and GRK2 assessed as beta-arrestin recruitment incubated for 3 hrs by chemiluminescence based PathHunter assay; assay type: functional, cell-based

T1 sequence (P14416 whole entry): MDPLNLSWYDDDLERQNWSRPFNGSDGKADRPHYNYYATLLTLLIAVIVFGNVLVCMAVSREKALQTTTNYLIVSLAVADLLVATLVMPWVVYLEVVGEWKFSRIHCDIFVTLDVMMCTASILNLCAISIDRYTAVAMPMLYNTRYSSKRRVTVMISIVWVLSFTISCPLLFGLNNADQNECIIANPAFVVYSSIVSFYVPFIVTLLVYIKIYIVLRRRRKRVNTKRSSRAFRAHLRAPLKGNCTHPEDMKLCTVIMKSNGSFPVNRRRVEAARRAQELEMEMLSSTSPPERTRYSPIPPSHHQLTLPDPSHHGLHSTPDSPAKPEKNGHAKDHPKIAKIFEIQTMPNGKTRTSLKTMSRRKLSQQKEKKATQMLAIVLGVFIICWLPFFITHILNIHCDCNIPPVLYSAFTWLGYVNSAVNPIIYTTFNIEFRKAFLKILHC

Row | SMILES | Ki (D(2) dopamine receptor [1]) | Ki (D(3) dopamine receptor) | Ki (D(2) dopamine receptor [2]) | Ki (D(4) dopamine receptor [3]) | other results
1 | COc1ccccc1N1CCN(CCCNC(=O)NCc2ccccc2-c2cccc(F)c2)CC1 | 67 nM | 210 nM | 86 nM | 3.1 nM | 
2 | COc1cccc(-c2ccccc2NC(=O)NCCCN2CCN(c3ccccc3OC)CC2)c1 | 110 nM | 24 nM | 120 nM | 10 nM | 
3 | COc1ccccc1N1CCN(CCCNC(=O)Nc2ccccc2-c2ccc(C(C)C)cc2)CC1 | 90 nM | 34 nM | 150 nM |  | 
4 | COc1ccccc1N1CCN(CCCNC(=O)NCc2ccccc2-c2ccc(F)cc2)CC1 | 75 nM | 99 nM | 210 nM | 5.3 nM | 
5 | COc1ccc(NC(=O)NCCCN2CCN(c3ccccc3OC)CC2)cc1-c1ccc(F)cc1 | 53 nM | 66 nM | 89 nM | 5.8 nM | 
6 | COCCOCCOc1ccc(NC(=O)NCCCN2CCN(c3ccccc3OC)CC2)c(-c2ccccc2)c1 | 74 nM | 86 nM | 130 nM |  | Ki [4]: 1500 nM; Ki [5]: 410 nM; Ki (D(1A) dopamine receptor): 22 nM; Ki [6]: 38 nM; Ki (D(1B) dopamine receptor): 3900 nM; Ki [7]: 220 nM
7 | COc1ccccc1N1CCN(CCCNC(=O)NN(Cc2ccc(F)cc2)c2ccccc2)CC1 |  |  |  |  | EC50 (D(4) dopamine receptor [8]): 1.8 nM; EC50 (D(4) dopamine receptor [9]): 350 nM; EC50 (D(4) dopamine receptor [10]): 42 nM
8 | COc1ccccc1N1CCN(CCCNC(=O)Nc2ccc(F)cc2-c2ccccc2)CC1 | 31 nM | 29 nM | 140 nM |  | 
9 | COc1ccccc1N1CCN(CCCNC(=O)NCc2c(F)cccc2-c2ccccc2)CC1 | 140 nM | 73 nM | 210 nM |  | 
10 | COc1ccc(CNC(=O)NCCCN2CCN(c3ccccc3OC)CC2)c(-c2ccccc2)c1 | 37 nM | 92 nM | 160 nM | 3.1 nM | 
11 | COc1ccccc1N1CCN(CCCNC(=O)NCc2ccc(F)cc2-c2ccccc2)CC1 | 40 nM | 99 nM | 73 nM | 2.7 nM | 
12 | COc1ccccc1N1CCN(CCCNC(=O)NCc2ccccc2-c2ccc(C)cc2)CC1 | 62 nM | 89 nM | 110 nM | 4.2 nM | 
13 | C#CCOc1ccc(NC(=O)NCCCN2CCN(c3ccccc3OC)CC2)c(-c2ccccc2)c1 | 46 nM | 39 nM | 86 nM | 3.5 nM | 
